Experimental data: patent publication US12644840B2, “Pathogenic susceptibility assessment based on autofluoresence” (Adiuvo D[…] Limited, priority 2021, dated 2026)

Key:
[1] = test system: Mycobacterium tuberculosis; experiment: Autofluorescence-based susceptibility testing of positive sputum samples; assay type: cell-based
Pseudomonas aeruginosa = settings: concentration added to sensitive and resistant strain wells; imaged at 0th and 4th hour; cited from earlier work

| Structure (SMILES) | MIC [1] [µg/mL] | Minimum Inhibitory Concentration (MIC) Value (Pseudomonas aeruginosa) [µg/mL] |
| --- | --- | --- |
| NC[C@H]1O[C@H](O[C@H]2[C@H](O)[C@@H](O[C@H]3O[C@H](CO)[C@@H](O)[C@H](N)[C@H]3O)[C@H](N)C[C@@H]2N)[C@H](O)[C@@H](O)[C@@H]1O [kanamycin] | > 3 |  |
| C[C@@H](O)[C@H]1C(=O)N2C(C(=O)O)=C(S[C@@H]3CN[C@H](C(=O)N(C)C)C3)[C@H](C)[C@H]12 [meropenem] |  | 4 |
